# Measured values: patent EP0076669A1, “Novel 3-phenyl-1-indanamines, pharmaceutical compositions and methods of preparation” (KEFALAS A/S, priority 1981, dated 1983)
# Columns and labels:
# [1] = target: T1, ^3H-DA uptake in striatal synaptosomes (Rattus norvegicus, UniProt P23977); experiment: biochemical; type: biochemical, Rats; conditions: rat striatal synaptosomes, 3H-DA 12.5 nM; read-out: Uptake Inhibition IC50 DA
# T1 construct: the two corpura striata are dissected out and gently homogenized; from tissue; host or cells: rat corpus striatum, synaptosomal P2 fraction
# T1 sequence (P23977 whole entry): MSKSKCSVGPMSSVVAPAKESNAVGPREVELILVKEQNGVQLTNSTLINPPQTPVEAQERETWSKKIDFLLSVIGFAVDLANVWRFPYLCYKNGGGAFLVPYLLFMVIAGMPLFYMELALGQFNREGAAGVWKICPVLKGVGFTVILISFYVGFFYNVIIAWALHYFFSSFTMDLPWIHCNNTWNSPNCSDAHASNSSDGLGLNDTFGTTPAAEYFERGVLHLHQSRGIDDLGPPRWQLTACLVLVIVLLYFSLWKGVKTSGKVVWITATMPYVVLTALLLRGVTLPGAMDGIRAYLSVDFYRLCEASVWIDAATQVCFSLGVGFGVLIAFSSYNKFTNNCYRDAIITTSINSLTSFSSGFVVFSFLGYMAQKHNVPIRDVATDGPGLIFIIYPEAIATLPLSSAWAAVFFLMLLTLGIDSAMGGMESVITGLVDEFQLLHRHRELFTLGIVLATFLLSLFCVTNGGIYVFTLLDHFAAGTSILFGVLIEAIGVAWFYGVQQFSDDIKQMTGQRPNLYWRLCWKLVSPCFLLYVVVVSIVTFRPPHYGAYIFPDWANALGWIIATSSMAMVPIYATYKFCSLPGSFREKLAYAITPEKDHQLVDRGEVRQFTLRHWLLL
# Description: ^3H-DA uptake in striatal synaptosomes in vitro.
# (§1) 0.32 M sucrose containing 1 mM Nialamide
# Krebs-Ringer-phosphate buffer, pH 7.4
# 3,4-dihydroxyphenylethylamine [ethyl-1-^3H(N)] = ^3H-DA, spc. act. app. 15 Ci/mmol, New England Nuclear
# (§2) Thomas Tissue Grinder, clearance 0.004-0.006 inch.
# Rats are killed by a blow to their head, exsanguinated and their brains removed. The brain is placed on a precooled glassplate, and the two corpura striata are dissected out and gently homogenized in 40 volumes of ice cold 0.32 M sucrose containing 1 mM of nialamide using a hand homogenizer with teflon pestle. The P2-fraction (synaptosomal fraction) is obtained by centrifugation (600 g, 10 min., 25000 g, 55 min. 4 °C) and suspended in 40 volumes of a modified Krebs-Ringer-phosphate buffer, pH 7.4. To 200µl of the synaptosomal fraction on ice are added 3700 µl modified Krebs-Ringer-phosphate buffer - containing test compounds. After a preincubation at 37°C for 5 min. […] The incubation is terminated by filtering the samples under vacuum through Millipore filters with a wash of 5 ml buffer containing 10 µM of unlabelled DA. After solubilizing the filters in 1 ml of cellosolve the radioactivity is determined by liquid scintillation counting after the addition of 10 ml of Insta-Gel. The unspecific binding of ^3H-DA is determined by incubating control samples on ice instead of at 37 °C.
# All experiments are performed in ttriplicate.
# The mean of all control samples and ice samples are calculated.
# [2] = tested on: tetrabenazine induced ptosis; experiment: Tetrabenazine ptosis antagonism; type: in vivo; conditions: Mus musculus, ip, 0.5 h; i.p., mice; tetrabenazine 40 mg/kg i.p. 30 min after test substance
# Description: For insoluble substances the doses 0, 1/8, 1/32 and 1/128 of "i.^p. LD50" are used. 3 mice are used for each dose level. Thirty minutes after administration of test substance, tetrabenazine, 40 mg/kg, is injected i.p. Ptosis is evaluated 30 minutes after administration of tetrabenazine, the following rating scale being used: 0 = normal eyes, 1=1/4 closed eyes, 2 = 1/2 closed eyes, 3 = 3/4 closed eyes and 4 = completely closed eyes. Ptosis is evaluated 30 seconds after tilting the cage 3 times. The tilting is carried out in such a way that the animals slide along the floor of the cage.
# The results are recorded as % inhibition of ptotic score calculated on the basis of the score of the control group. If ptotic score for the control group is < 10 the test is rejected and another is performed. The registration can also be done as an on line procedure.
# potentiation of 5-HTP = experiment: 5-HTP potentiation (5-HTP syndrome); type: in vivo; conditions: Mus musculus, ip, 0.5 h; i.p., mice; 5-HTP 100 mg/kg i.v. 30 min after test substance; read-out: 5-HTP potentation,ED50
# Description: The test substance is given i.p. or p.o. in the doses 10, 10, 2.5, 0.63 and 0 mg/kg. Three mice are used for each dose level. One of the groups on the highest dose is used as control of the compounds own effect. […] Thirty minutes after administration of test substance, 5-HTP, 100 mg/kg i.v. is given (injection time 5-10 sec.). After this 5-HTP dose the animals remain unaffected. If the animals have been pretreated with a substance, which inhibits the re-uptake of 5-HT, a 5-HTP syndrome will occur. This is characterized by the following symptoms: 1) excitation, 2) tremor, and 3) abduction of the hind limbs.
# After the administration of 5-HTP the animals are observed for 15 minutes and each animal is given one point for each symptom present. Thus, the maximal score for a group consisting of 3 mice is 9.
# The results are stated as fractions: 0/9, 1/9, 2/9 ..... 8/9, 9/9, where 0, 1, 2 ..... 8, 9 are the number of points per group after the dose in question.
# [3] = target: T2, ^3H-5-HT uptake in synaptosomes (Rattus norvegicus, UniProt P31652); experiment: Inhibition of 3H-5-HT uptake in synaptosomes in vitro; type: biochemical, Rats
# T2 construct: Rest of the brain is gently homogenized (glass teflon homogenizer); from tissue; host or cells: rat brain without cerebellum, pons and medulla oblongata, synaptosomal P2 fraction
# T2 sequence (P31652 whole entry): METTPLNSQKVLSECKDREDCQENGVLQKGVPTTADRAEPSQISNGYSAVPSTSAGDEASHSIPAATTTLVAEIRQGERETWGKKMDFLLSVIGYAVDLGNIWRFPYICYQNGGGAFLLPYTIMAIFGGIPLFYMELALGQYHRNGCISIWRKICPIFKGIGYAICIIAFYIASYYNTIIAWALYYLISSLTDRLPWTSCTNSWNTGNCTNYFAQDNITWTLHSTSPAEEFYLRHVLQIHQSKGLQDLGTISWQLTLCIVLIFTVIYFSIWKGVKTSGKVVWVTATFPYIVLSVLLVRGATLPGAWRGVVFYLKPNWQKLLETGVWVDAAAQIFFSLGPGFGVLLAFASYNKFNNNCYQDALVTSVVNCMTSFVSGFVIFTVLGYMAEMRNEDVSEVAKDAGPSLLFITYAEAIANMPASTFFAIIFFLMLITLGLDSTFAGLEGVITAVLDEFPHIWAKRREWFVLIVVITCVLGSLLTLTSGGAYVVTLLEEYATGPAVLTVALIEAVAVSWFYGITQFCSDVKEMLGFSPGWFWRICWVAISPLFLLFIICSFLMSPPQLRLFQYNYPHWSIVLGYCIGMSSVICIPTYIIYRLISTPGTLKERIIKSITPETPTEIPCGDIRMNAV
# Description: Inhibition of ^3H-5-HT uptake in synaptosomes in vitro.
# as §1
# Krebs-Ringer-Phosphate buffer, pH 7.4
# Millipore filters (HAWPO 2500, 0.45 µ)
# 5-hydroxy [G-^3H] tryptamine creatinine sulphate = ^3H-5-HT, spc. act. app. 10 Ci/mmol, The Radiochemical Centre, Amersham.
# as §2
# Rats are killed by a blow on the head and exsanguinated. The brain is quickly removed, rinsed for blood and placed on a cold plate. The cerebellum, pons and medulla oblongata are removed. Rest of the brain is gently homogenized (glass teflon homogenizer) in 40 volumes of ice cold 0.32 M of sucrose containing 1 mM of nialamide. The P2 fraction (synaptosomal fraction) is obtained by centrifugation (600 g, 10 min. and 25000 g, 55 min., 4°C) and suspended in 40 volumes of a modified Krebs-Ringer-Phosphate buffer, pH 7.4.
# To 200µl of the synaptosomal suspension on ice are added 3700 µl modified Krebs-Ringer-phosphate buffer, pH 7.4, containing test substances. After preincubation at 37°C for 5 min., 100 µl of ^3H-5-HT (final concentration in the samples = 10 nM) are added and the samples are incubated for 10 min. at 37 °C. The incubation is terminated by filtering the samples under vacuum through Millipore filters with a wash of 5 ml buffer containing 10 µM of unlabelled 5-HT. After solubilizing the filters in I ml of cellosolve, 10 ml of Instagel are added, and the radioactivity is determined by liquid and scintillation counting. The unspecific binding and passive transport of ^3H-5-HT is determined by incubating control samples on ice instead of at 37°C. All experiments are performed in triplicate. The mean of all control samples are calculated.
# The IC50- values are determined as the concentrations, at which the uptake are 50 per cent of the uptake in control sample -uptake in ice samples.
compound,measurement,setting,value
"CN(C)C1CC(O)(c2ccc(Cl)c(Cl)c2)c2ccccc21 (stereo not shown) [Lu 19-034, N,N-Dimethyl-3-(3,4-dichlorophenyl)-3-hydroxy-1-indanamine]",IC50,[1],130 nM
same,ED50,[2],9 µmol/kg
same,ED50,potentiation of 5-HTP,11 µmol/kg
same,IC50,[3],1.7 nM
